Source: patent publication US20260297542A1, “HERBICIDE RESISTANT PLANTS” (SYNGENTA CROP PROTECTION AG, priority 2023, published 2026)
Changes are numbered by the printed parent chain.

Tests used:
[1] = target: T1, AtPPO1 S305L Y361C L362F Y426M L479M (SEQ ID NO.134) (Arabidopsis thaliana, UniProt P55826, L479M/S305L/Y361C/Y362F/Y426M); assay: fluorescent Protoporphyrinogen Oxidase assay, crude extract; format: biochemical; conditions: read-out: percentage inhibition
T1 sequence (P55826 35-537 S305L/Y361C/Y362F/Y426M/L479M): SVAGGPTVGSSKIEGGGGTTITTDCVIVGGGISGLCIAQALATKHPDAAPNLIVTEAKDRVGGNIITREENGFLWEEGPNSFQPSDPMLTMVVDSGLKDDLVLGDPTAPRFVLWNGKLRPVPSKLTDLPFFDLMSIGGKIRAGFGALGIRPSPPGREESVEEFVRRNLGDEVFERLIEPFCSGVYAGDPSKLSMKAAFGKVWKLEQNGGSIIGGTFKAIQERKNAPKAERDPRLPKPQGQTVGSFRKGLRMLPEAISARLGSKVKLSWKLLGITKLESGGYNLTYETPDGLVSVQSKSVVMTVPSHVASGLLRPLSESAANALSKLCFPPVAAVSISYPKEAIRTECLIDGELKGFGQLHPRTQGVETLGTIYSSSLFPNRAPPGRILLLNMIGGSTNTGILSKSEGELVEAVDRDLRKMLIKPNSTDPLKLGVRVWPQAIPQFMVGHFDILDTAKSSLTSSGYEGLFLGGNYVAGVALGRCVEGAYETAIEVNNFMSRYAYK
Method: (§1) A pET24 plasmid containing a DNA sequence encoding each identified variant mutant of AtPPO1 derived from Arabidopsis thaliana, codon-optimised for expression in E. coli, and under control of a T7 promoter, was synthesised by Twist Bioscience. This plasmid was expressed in E. coli BL21 (DE3) hemG with 50 μg/mL kanamycin and 25 μg/mL chloramphenicol selection. Overnight cultures grown at 37° C. were used to inoculate 150 ml AIM (AIM-Terrific Broth Base including Trace elements, Formedium) in 500 ml shake flasks at a ratio of 1:100. Cultures were grown at 37° C., 200 rpm for 3 hours and then overnight at 26° C. Cells were harvested by 4° C. centrifugation for 20 minutes at 600 rpm. Cells were stored at −80° C. until extraction. 0.5-1 g of cell pellet from was thawed and resuspended in ratio of 1:1 in lysis buffer (20 mM Tris pH8, 500 mM sodium chloride, 10% glycerol, 1× complete Protease EDTA-free Inhibitor Tablet (Roche)). The resuspension was sonicated at 50% using 10-20 cycles of 10 seconds, 20 seconds off. After sonication Triton X-100 was added to the lysates at a final concentration of 0.5%. The lysates were centrifuged at 13.00 rpm for 10 min at 4° C. The crude extracts (i.e, supernatants) were stored at −80° C. Protein concentration was measured and calculated using the absorbance at 280 nm. Extracts were diluted 1 in 4 and 10 uL was analysed by SDS PAGE.
(§2) Variant crude extracts were assayed in a fluorescent Protoporphyrinogen Oxidase assay in black 384 well plates with a clear bottom. The total volume of the reaction mixture was 100 ul and contained 100 mM K2HPO4 pH7.2, 1 mM Na2EDTA, 5 mM DTT, 20% glycerol (v/v), 0.025% Tween 20 (v/v). Reactions were started with addition of 1 uM protoporphyrinogen IX final assay concentration. Fluorescence was monitored over 30 min using a Tecan plate reader with an excitation wavelength of 405 nm, emission wavelength of 635 nm, gain of 90 and 15 flashes. 10 ul of 3-fold serial dilution of crude extract in 100 mM K2HPO4 pH7.2, 1 mM Na2EDTA, 5 mM DTT, 20% glycerol (v/v), 0.05% Tween 20 (v/v) was tested in the assay against 1% DMSO and 100 ppm herbicide B to determine the correct amount of crude extract to add to the assay to observe activity. 10 ul of the appropriate crude extract dilution was then tested in the fluorescent Protoporphyrinogen Oxidase assay against DMSO and 10-fold dose response of each compound (herbicides A to E) with a top rate of 100 ppm.
(§3) The percentage inhibition was calculated as the activity in the presence of one of four concentrations of each herbicide compound A to E (note that the compounds labelled as A to E are identified hereinabove in the relevant section of the description) as a percentage of the enzyme activity in DMSO (Table 5).

[2] = target: T2, AtPPO1 V365L Y426V L479N (SEQ ID NO.126) (Arabidopsis thaliana, UniProt P55826, L479N/V365L/Y426V); assay: as above; format: biochemical; conditions: read-out: percentage inhibition
T2 construct: made in house; host or cells: E. coli BL21 (DE3) hemG, crude extract
T2 sequence (P55826 35-537 V365L/Y426V/L479N): T1 sequence (P55826 35-537 S305L/Y361C/Y362F/Y426M/L479M) with L271S, C327Y, F328Y, V331L, M392V, M445N
Method: as §1, §2, §3

In the case of CC(C)N(C)S(=O)(=O)NC(=O)c1cc(-n2c(=O)cc(C(F)(F)F)n(C)c2=O)c(F)cc1Cl [Herbicide E, saflufenacil], the inhibition at 0.1 ppm [1] is reported as 0%, the inhibition at 1 ppm [1] is reported as 39% and the inhibition at 10 ppm [1] is reported as 80%. For the same compound, the inhibition at 100 ppm [1] was 99%, the inhibition at 0.1 ppm [2] was 0% and the inhibition at 1 ppm [2] was 22%. The inhibition at 10 ppm [2] was 77% and the inhibition at 100 ppm [2] was 94%.
For C#CCN1C(=O)C(F)(F)Oc2cc(F)c(-n3c(=O)n(C)c(=S)n(C)c3=O)cc21 [Herbicide B, trifludimoxazin], the inhibition at 0.1 ppm [1] was 100%, the inhibition at 1 ppm [1] was 100% and the inhibition at 10 ppm [1] was 100%. It also gave an inhibition at 100 ppm [1] of 100%, an inhibition at 0.1 ppm [2] of 98% and an inhibition at 1 ppm [2] of 100%. For the same compound, the inhibition at 10 ppm [2] was 100% and the inhibition at 100 ppm [2] was 100%.
With CCOC(=O)COc1ncccc1Oc1cc(-n2c(=O)cc(C(F)(F)F)n(C)c2=O)c(F)cc1Cl [Herbicide A, epyrifenacil] the inhibition at 0.1 ppm [1] was 0%, the inhibition at 1 ppm [1] was 40% and the inhibition at 10 ppm [1] was 83%. It also gave an inhibition at 100 ppm [1] of 92%, an inhibition at 0.1 ppm [2] of 0% and an inhibition at 1 ppm [2] of 36%. The inhibition at 10 ppm [2] was 73% and the inhibition at 100 ppm [2] was 90%.
Work on CCOC(=O)C1(C)CC(c2cc(-n3c(=O)cc(C(F)(F)F)n(C)c3=O)c(F)cc2Cl)=NO1 (stereo not shown) [Herbicide C, 3-(2-chloro-4-fluoro-5-(3-methyl-2,6-dioxo-4-trifluoromethyl-3,6-dihydropyrimidin-1(2H)-yl)phenyl)-5-methyl-4,5-dihydroisoxazole-5-carboxylic acid ethyl ester] yielded an inhibition at 0.1 ppm [1] of 19%, an inhibition at 1 ppm [1] of 65% and an inhibition at 10 ppm [1] of 99%. For the same compound, the inhibition at 100 ppm [1] was 100%, the inhibition at 0.1 ppm [2] was 4% and the inhibition at 1 ppm [2] was 44%. For the same compound, the inhibition at 10 ppm [2] was 82% and the inhibition at 100 ppm [2] was 93%.
CCOC(=O)[C@]1(C)CC(c2cc(-n3c(=O)n(C)c(=S)n(C)c3=O)c(F)cc2Cl)=NO1 [Herbicide D, ethyl (5S)-3-[2-chloro-5-(3,5-dimethyl-2,6-dioxo-4-thioxo-1,3,5-triazinan-1-yl)-4-fluoro-phenyl]-5-methyl-4H-isoxazole-5-carboxylate] was tested, and the inhibition at 0.1 ppm [1] was 0%, the inhibition at 1 ppm [1] was 56% and the inhibition at 10 ppm [1] was 85%. The inhibition at 100 ppm [1] was 100%, the inhibition at 0.1 ppm [2] was 12% and the inhibition at 1 ppm [2] was 33%. The inhibition at 10 ppm [2] was 89% and the inhibition at 100 ppm [2] was 98%.
